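Dose response: 5 concentrations. Exposure: 48 h. Format: 96-well plates. Endpoint: linear interpolation; highest concentration if not reached. Definition used: TGI = concentration required for complete inhibition of growth.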
Columns and labels:
Assay in all cases: NCI-60 cell line screen, 48 h
[1] = tested on: DLD-1 colon
[2] = tested on: DMS 114 small cell lung
[3] = tested on: DMS 273 small cell lung
[4] = tested on: KM20L2 colon
[5] = tested on: LXFL 529 NSCLC
[6] = tested on: XF 498 CNS
[7] = tested on: RXF-631 renal

SMILES | TGI [1] [µM] | TGI [2] [µM] | TGI [3] [µM] | TGI [4] [µM] | TGI [5] [µM] | TGI [6] [µM] | TGI [7] [µM]
CC(C)(CN1CCCCC1)C(=O)/C=C/c1ccc(Br)cc1 | 10.3 | 3.44 | 4.92 | 6.85 | 3.52 | 6.21 | –
COC(=O)[C@@]12OC[C@]34C([C@@H](O)C1O)[C@@]1(C)CC(=O)C(OC(=O)CC(C)C(F)(F)F)=C(C)C1C[C@H]3OC(=O)[C@H](O)[C@H]42 (stereo partly drawn) | – | 18.5 | 11.2 | > 62.5 | > 62.5 | 5.18 | –
CN1CCOC(C(NC(=O)c2ccccc2)c2ccccc2)C1=O (stereo not drawn) | > 100 | – | > 100 | > 100 | – | – | –
COC(=O)C(C(=O)C(=O)Nc1c(Cl)cc([N+](=O)[O-])cc1Cl)c1csc(-n2nc(C3=CCCCC3)cc2-c2ccccc2)n1 (stereo not drawn) | > 100 | – | > 100 | > 100 | > 100 | – | > 100
CCOC(=O)C1S(=O)(=O)OCCOS1(=O)=O | > 100 | – | > 100 | – | > 100 | > 100 | > 100
O=C1c2ccccc2N2OC3(N4CCOCC4)CCCC3C12c1ccccc1 (stereo not drawn) | > 100 | > 100 | > 100 | > 100 | > 100 | > 100 | –
CC(=O)OC1COC(N2CCc3cc([N+](=O)[O-])ccc32)C(OC(C)=O)C1OC(C)=O (stereo not drawn) | > 100 | > 100 | > 100 | > 100 | > 100 | > 100 | –
NNC(=O)C(=O)NN=C(C(Cl)(Cl)CO)C(Cl)(Cl)CO | 57.4 | – | > 100 | > 100 | > 100 | > 100 | 55.7
CCOC(=O)/C(=C/c1ccccn1)C(=O)c1ccccc1 | 29.5 | 28.5 | 27.3 | 51.6 | 23.5 | 30.3 | 28.9
O=C(c1ccccc1)C1(Br)S(=O)(=O)OCCOS1(=O)=O | > 100 | > 100 | > 100 | > 100 | > 100 | > 100 | –
COc1ccc2ccccc2c1C1=NC(C)(C)CO1 | > 100 | – | – | > 100 | > 100 | > 100 | > 100
COc1ccc(-c2c(C3=NCCCN3)nnn2-c2ccccc2)cc1 | > 100 | > 100 | > 100 | > 100 | > 100 | > 100 | –
C1CCC(N=C2N(C3CCCCC3)C(=NC3CCCCC3)N2C2CCCCC2)CC1 | > 100 | > 100 | > 100 | > 100 | > 100 | > 100 | –
C1CSCCSCCCS[C@@H]2CCCCC2SC1 (stereo partly drawn) | > 100 | 65.4 | > 100 | > 100 | > 100 | – | –
O=C1CC(c2ccc(Cl)cc2)=Nc2ccccc2N1 | > 100 | > 100 | > 100 | > 100 | > 100 | – | > 100
